In PubChem BioAssay AID515 (SGCOxCompounds, 2006):

Molecular target: Mitogen-activated protein kinase kinase kinase 5 (Homo sapiens) (UniProt Q99683)
Test: MAP3K5 (ASK1) binders by thermal shift, biophysical, DSF, SYPRO orange, recombinant protein (AID 515)
Details: at 10 µM, buffer 10 mM HEPES, pH 7.5, NaCl 150 mM, hits give high values

Sequence of Mitogen-activated protein kinase kinase kinase 5 (Homo sapiens) (Q99683 whole entry, looked up): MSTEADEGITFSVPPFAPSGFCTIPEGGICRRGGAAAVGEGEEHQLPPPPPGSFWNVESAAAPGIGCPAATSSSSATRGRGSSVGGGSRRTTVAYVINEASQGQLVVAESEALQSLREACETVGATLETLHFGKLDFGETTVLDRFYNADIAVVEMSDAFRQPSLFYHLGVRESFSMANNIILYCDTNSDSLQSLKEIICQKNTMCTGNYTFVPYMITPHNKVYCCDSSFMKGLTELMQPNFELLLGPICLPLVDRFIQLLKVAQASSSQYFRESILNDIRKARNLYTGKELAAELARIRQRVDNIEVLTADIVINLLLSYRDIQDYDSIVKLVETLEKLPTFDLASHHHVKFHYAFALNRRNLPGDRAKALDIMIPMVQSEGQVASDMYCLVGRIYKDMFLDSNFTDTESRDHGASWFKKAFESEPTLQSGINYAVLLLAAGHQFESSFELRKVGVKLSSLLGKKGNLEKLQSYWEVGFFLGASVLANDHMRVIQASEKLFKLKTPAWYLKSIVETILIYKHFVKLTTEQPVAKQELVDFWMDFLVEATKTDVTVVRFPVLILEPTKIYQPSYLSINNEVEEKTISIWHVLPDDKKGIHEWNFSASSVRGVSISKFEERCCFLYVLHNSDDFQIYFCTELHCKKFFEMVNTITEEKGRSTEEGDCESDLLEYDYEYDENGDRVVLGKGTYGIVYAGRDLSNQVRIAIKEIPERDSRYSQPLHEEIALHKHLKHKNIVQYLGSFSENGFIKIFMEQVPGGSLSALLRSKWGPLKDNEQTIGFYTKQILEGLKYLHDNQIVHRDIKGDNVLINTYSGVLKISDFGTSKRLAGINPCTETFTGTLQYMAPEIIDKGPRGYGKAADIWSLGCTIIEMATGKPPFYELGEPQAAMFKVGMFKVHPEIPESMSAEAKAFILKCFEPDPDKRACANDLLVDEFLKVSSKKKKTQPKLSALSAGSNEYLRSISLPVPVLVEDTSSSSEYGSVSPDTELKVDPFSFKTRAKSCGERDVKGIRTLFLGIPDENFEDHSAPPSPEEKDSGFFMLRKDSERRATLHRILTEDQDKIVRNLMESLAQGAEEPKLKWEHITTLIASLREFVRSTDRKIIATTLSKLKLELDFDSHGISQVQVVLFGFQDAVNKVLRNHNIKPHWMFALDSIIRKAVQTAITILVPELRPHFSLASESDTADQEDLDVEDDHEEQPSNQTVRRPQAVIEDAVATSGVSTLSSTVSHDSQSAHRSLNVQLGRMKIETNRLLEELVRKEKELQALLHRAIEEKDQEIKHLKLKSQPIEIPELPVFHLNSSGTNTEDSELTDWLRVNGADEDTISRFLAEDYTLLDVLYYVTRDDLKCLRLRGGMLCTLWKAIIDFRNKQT

Compound	Tm shift
O=Nc1c(-c2c(O)[nH]c3ccc(S(O)(O)O)cc23)[nH]c2ccccc12	4.04 Celsius
COc1cccc(N=Cc2c(O)[nH]c3ccccc23)c1	3.2 Celsius
Nc1nc(Nc2ccc(S(N)(=O)=O)cc2)nn1C(=S)Nc1c(F)cccc1F	16.9 Celsius
CCOc1c(Br)ccc2c1sc1nc[nH]c(=O)c12	3.9 Celsius
O=C(c1ccc(Nc2nccc(-c3cc4ccccc4s3)n2)cc1)N1CCC(N2CCCC2)CC1	5.1 Celsius
CC1N=C2SC=CN2C(=O)C1CCN1CCC(=C(c2ccccc2)c2ccc(F)cc2)CC1 (stereo not drawn)	4.8 Celsius
O=c1[nH]cnc2scc(-c3cccs3)c12	3.7 Celsius
O=Nc1c(-c2c(O)[nH]c3ccccc23)[nH]c2ccccc12	6.1 Celsius
OCC(O)CCO/N=C1/C(c2c(O)[nH]c3ccccc23)=Nc2ccccc21 (stereo not drawn)	5.6 Celsius
O=Nc1c(-c2c(O)[nH]c3ccc(I)cc23)[nH]c2ccccc12	5.72 Celsius
Cc1ccc2c(c1)=C(c1[nH]c(=S)[nH]c1O)C(=O)N=2	4.5 Celsius
O=C1Nc2ccccc2/C1=C\c1cnc[nH]1	4.76 Celsius
O=C(Nc1ccc(N2CCOCC2)cc1)Nc1ccc(Cl)c(Cl)c1	5.7 Celsius
NC1=N/C(=C2/CCNC(=O)c3[nH]c(Br)cc32)C(=O)N1	8.7 Celsius
Cn1cc(/C=C2\C(=O)Nc3ccc(S(N)(=O)=O)cc32)c2ccccc21	10 Celsius
O=c1c(O)c(-c2ccc(O)c(O)c2)oc2cc(O)cc(O)c12	3.7 Celsius
N#Cc1ccc(-c2cnc3ccc(NC4CCOCC4)nn23)cc1	3.5 Celsius
Cc1c2ccncc2c(C)c2c1[nH]c1ccccc12	6.3 Celsius

Same assay, conditions: at 10 µM, buffer 10 mM HEPES, pH 7.5, NaCl 150 mM, with 50 µM L-Arg/L-Glu (1:1), hits give high values

Compound	Tm shift
CC(O)(O)C1(O)C[C@@H]2O[C@@]1(C)n1c3ccccc3c3c4c(c5c6ccccc6n2c5c31)C(=O)NC4 (stereo partly drawn)	14.1 Celsius
O=c1c(O)c(-c2ccc(O)c(O)c2)oc2cc(O)ccc12	3.96 Celsius
CC(C)(C)c1nc2c3cc[nH]c(=O)c3c3cc(F)ccc3c2[nH]1	8.26 Celsius
CC1N=C2SC=CN2C(=O)C1CCN1CCC(=C(c2ccccc2)c2ccc(F)cc2)CC1 (stereo not drawn)	6.07 Celsius
COc1ccc2c(c1)/C(=C/c1cnc[nH]1)C(=O)N2	5.19 Celsius
O=C1c2ccccc2-c2n[nH]c3cccc1c23	8.63 Celsius
NC1=N/C(=C2/CCNC(=O)c3[nH]c(Br)cc32)C(=O)N1	12.5 Celsius
CCN(CC)CCNC(=O)c1c(C)[nH]c(/C=C2\C(=O)Nc3ccc(Cl)cc32)c1C	6.43 Celsius
O=C1NCc2c1c1c3ccccc3[nH]c1c1[nH]c3ccccc3c21	8.53 Celsius
O=C1Nc2ccccc2/C1=C/c1ccc[nH]1	5.01 Celsius
O=Nc1c(-c2c(O)[nH]c3cc(Br)ccc23)[nH]c2ccccc12	8.7 Celsius
Cc1cc(C=C2C(=O)C=CC2=O)cc(C)c1O	3.1 Celsius
NC(=O)Nc1sc(-c2ccccc2)cc1C(N)=O	5.94 Celsius
NC1=N/C(=C2\CCNC(=O)c3[nH]ccc32)C(=O)N1	4.65 Celsius
O=C1NC(=O)c2c1c1c3ccccc3n3c1c1c2c2ccccc2n1[C@@H]1CCC3O1	6.97 Celsius
